Experiment: Solubility (descriptive)
Format: physicochemical
Details: 0.9% NaCl release medium
From the text: The samples at each sampling point are filtered through a 0.45 μm microporous film and injected for analysis.

solubility in the release medium: very low
SMILES: CC(C)[C@@H](C)/C=C/[C@@H](C)[C@H]1CC[C@H]2C3=CC=C4C[C@@H](O)CC[C@]4(C)[C@H]3CC[C@]12C [ergosterol]

— patent US20190083398A1 (ZheJiang Chinese Medical University, priority 2016, published 2019)
